Assay: MALDI-TOF screening of Ni^2+ dependent hydrolysis in a combinatorial peptide library
Format: physicochemical
Settings: CH3CO-Gly-Ala-Ser-X-His-Z-Lys-Phe-Leu-NH2 library, Ni^2+ 2 mM, pH 8.2, 10 mM Tris, score=24/tm
In short: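 MALDI-TOF read-out: appearance of Ser/Thr-X-His-Z-Lys-Phe-Leu-NH2 product signals, plus loss of substrate signals, checked by eye at 2, 4, 6, 8 h. Conditions: 1 mM peptide mixture, 2 mM Ni2+, 10 mM Tris pH 8.2, 37 or 45 °C.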

Row | Substance | hydrolysis score from MALDI-TOF screening (37° C.) | hydrolysis score from MALDI-TOF screening (45° C.)
1 | Ac-GASRHVKFL-NH2 [SRHV] | 6 (a score of 6 for detection at 4 hours) | 12 (a score of 12, if it was seen to be partially hydrolysed at 2 hours)
2 | Ac-GASRHYKFL-NH2 [SRHY] | 4 (a score of 4 for detection at 6 hours) | 6 (a score of 6 for detection at 4 hours)
3 | Ac-GASSHAKFL-NH2 [SSHA] | 0 (a score of 0 if no trace of the product of hydrolysis was seen after 8 hours of incubation) | 3 (a score of 3 for detection at 8 hours)
4 | Ac-GASSHDKFL-NH2 [SSHD] | 0 (a score of 0 if no trace of the product of hydrolysis was seen after 8 hours of incubation) | 3 (a score of 3 for detection at 8 hours)
5 | Ac-GASSHEKFL-NH2 [SSHE] | 0 (a score of 0 if no trace of the product of hydrolysis was seen after 8 hours of incubation) | 3 (a score of 3 for detection at 8 hours)
6 | Ac-GASSHFKFL-NH2 [SSHF] | 3 (a score of 3 for detection at 8 hours) | 3 (a score of 3 for detection at 8 hours)
7 | Ac-GASSHGKFL-NH2 [SSHG] | 0 (a score of 0 if no trace of the product of hydrolysis was seen after 8 hours of incubation) | 3 (a score of 3 for detection at 8 hours)
8 | Ac-GASSHHKFL-NH2 [SSHH] | 0 (a score of 0 if no trace of the product of hydrolysis was seen after 8 hours of incubation) | 3 (a score of 3 for detection at 8 hours)
9 | Ac-GASSHIKFL-NH2 [SSHI] | 6 (a score of 6 for detection at 4 hours) | 6 (a score of 6 for detection at 4 hours)
10 | Ac-GASSHKKFL-NH2 [SSHK] | 4 (a score of 4 for detection at 6 hours) | 6 (a score of 6 for detection at 4 hours)
11 | Ac-GASSHLKFL-NH2 [SSHL] | 6 (a score of 6 for detection at 4 hours) | 6 (a score of 6 for detection at 4 hours)
12 | Ac-GASSHNKFL-NH2 [SSHN] | 0 (a score of 0 if no trace of the product of hydrolysis was seen after 8 hours of incubation) | 0 (a score of 0 if no trace of the product of hydrolysis was seen after 8 hours of incubation)
13 | Ac-GASSHPKFL-NH2 [SSHP] | 0 (a score of 0 if no trace of the product of hydrolysis was seen after 8 hours of incubation) | 0 (a score of 0 if no trace of the product of hydrolysis was seen after 8 hours of incubation)
14 | Ac-GASSHQKFL-NH2 [SSHQ] | 0 (a score of 0 if no trace of the product of hydrolysis was seen after 8 hours of incubation) | 0 (a score of 0 if no trace of the product of hydrolysis was seen after 8 hours of incubation)
15 | Ac-GASSHRKFL-NH2 [SSHR] | 6 (a score of 6 for detection at 4 hours) | 6 (a score of 6 for detection at 4 hours)
16 | Ac-GASSHSKFL-NH2 [SSHS] | 0 (a score of 0 if no trace of the product of hydrolysis was seen after 8 hours of incubation) | 3 (a score of 3 for detection at 8 hours)

Row | Substance | hydrolysis score from MALDI-TOF screening (37° C.) | hydrolysis score from MALDI-TOF screening (45° C.)
17 | Ac-GASSHTKFL-NH2 [SSHT] | 0 (a score of 0 if no trace of the product of hydrolysis was seen after 8 hours of incubation) | 0 (a score of 0 if no trace of the product of hydrolysis was seen after 8 hours of incubation)
18 | Ac-GASSHVKFL-NH2 [SSHV] | 3 (a score of 3 for detection at 8 hours) | 4 (a score of 4 for detection at 6 hours)
19 | Ac-GASSHWKFL-NH2 [SSHW] | 6 (a score of 6 for detection at 4 hours) | 12 (a score of 12, if it was seen to be partially hydrolysed at 2 hours)
20 | Ac-GASSHYKFL-NH2 [SSHY] | 3 (a score of 3 for detection at 8 hours) | 3 (a score of 3 for detection at 8 hours)
21 | Ac-GASTHAKFL-NH2 [STHA] | 0 (a score of 0 if no trace of the product of hydrolysis was seen after 8 hours of incubation) | 0 (a score of 0 if no trace of the product of hydrolysis was seen after 8 hours of incubation)
22 | Ac-GASTHDKFL-NH2 [STHD] | 0 (a score of 0 if no trace of the product of hydrolysis was seen after 8 hours of incubation) | 0 (a score of 0 if no trace of the product of hydrolysis was seen after 8 hours of incubation)
23 | Ac-GASTHEKFL-NH2 [STHE] | 0 (a score of 0 if no trace of the product of hydrolysis was seen after 8 hours of incubation) | 0 (a score of 0 if no trace of the product of hydrolysis was seen after 8 hours of incubation)
24 | Ac-GASTHFKFL-NH2 [STHF] | 0 (a score of 0 if no trace of the product of hydrolysis was seen after 8 hours of incubation) | 3 (a score of 3 for detection at 8 hours)
25 | Ac-GASTHGKFL-NH2 [STHG] | 0 (a score of 0 if no trace of the product of hydrolysis was seen after 8 hours of incubation) | 0 (a score of 0 if no trace of the product of hydrolysis was seen after 8 hours of incubation)
26 | Ac-GASTHHKFL-NH2 [STHH] | 0 (a score of 0 if no trace of the product of hydrolysis was seen after 8 hours of incubation) | 3 (a score of 3 for detection at 8 hours)
27 | Ac-GASTHIKFL-NH2 [STHI] | 4 (a score of 4 for detection at 6 hours) | 6 (a score of 6 for detection at 4 hours)
28 | Ac-GASTHKKFL-NH2 [STHK] | 3 (a score of 3 for detection at 8 hours) | 6 (a score of 6 for detection at 4 hours)
29 | Ac-GASTHLKFL-NH2 [STHL] | 4 (a score of 4 for detection at 6 hours) | 6 (a score of 6 for detection at 4 hours)
30 | Ac-GASTHMKFL-NH2 [STHM] | 0 (a score of 0 if no trace of the product of hydrolysis was seen after 8 hours of incubation) | 0 (a score of 0 if no trace of the product of hydrolysis was seen after 8 hours of incubation)
31 | Ac-GASTHNKFL-NH2 [STHN] | 0 (a score of 0 if no trace of the product of hydrolysis was seen after 8 hours of incubation) | 0 (a score of 0 if no trace of the product of hydrolysis was seen after 8 hours of incubation)
32 | Ac-GASTHPKFL-NH2 [STHP] | 0 (a score of 0 if no trace of the product of hydrolysis was seen after 8 hours of incubation) | 0 (a score of 0 if no trace of the product of hydrolysis was seen after 8 hours of incubation)

— patent US8969516B2, “Method of hydrolysis of peptide bond” (priority 2006, dated 2015)
